Measured values as given in patent US20130261077A1 (priority 2012, published 2013).

Biological target: T1, FimH-CRD (Escherichia coli, UniProt P08191)
T1 construct: The first 177 amino acids of the FimH protein; thrombin tag (printed as 'fusion protein with thrombin') (cleaved yes); made in house; host or cells: bacteria (pET21b plasmid)
Test: Competitive binding assay by fluorescence polarization, assay 1 (compounds prepared by manual serial dilution)
Procedure: The first 177 amino acids of the FimH protein were expressed as a fusion protein with thrombin in a pET21b plasmid in bacteria. This FimH protein sequence contains the carbohydrate recognition domain (CRD) and shall be termed FimH-CRD. Following bacterial expression of the protein, the FimH-CRD protein was purified to homogeneity and the thrombin tag removed by protease cleavage. A competitive binding assay by fluorescence polarization was performed using 5 nM of the Alexa 647 mannoside probe and 60 nM of the FimH-CRD. The samples are assayed in a low volume 384 well microtiter plate in a final volume of 20 μl. The final assay buffer conditions are the following, 50 mM Tris-Cl, ph 7.0, 100 mM NaCl, 1 mM EDTA, 5 mM β-mercaptoethanol, 0.05% BSA and 2.5% DMSO. Two assays are performed for FimH, termed assay 1 or assay 2. The assay conditions are the same for both assays except the following: assay 1 has compounds prepared by manual dilution in a serial dilution factor with 12-point dose response while assay 2 has compounds prepared by a robotics system also through a serial dilution factor (12 point dose response) and initially prepared in duplicate in 384 well-Corning polypropylene round bottom plates. The assay 2 plates have compound which is then frozen and must be thawed prior to use. Initially the Alexa 647 probe and the FimH-CRD are added to the assay buffer and then 0.5 μl of test compound (assay 1 or 2) between 0.4 nM to 75 μM final concentration are added (12 point titration with 3-fold serial dilution). Control wells for the Alexa 647 probe are prepared with the same conditions except for the addition of the FimH-CRD protein. Plates are then incubated for 5 hrs at room temperature in the dark and under humid conditions to prevent drying. Plates are read using the SpectraMax Paradigm multi-mode plate reader and the appropriate fluorescent polarization detection cartridge (Alexa-647).
Alexa 647 mannoside probe is prepared using the similar procedure reported for FAM mannoside (Han, Z. et. al., 2010, J. Med. Chem., 53, 4779) and is described in the scheme below.
To a blue colored stirred solution of (2S,3S,4S,5S,6R)-2-(4-aminobutoxy)-6-(hydroxymethyl)tetrahydropyran-3,4,5-triol (2.21 mg, 0.009 mmol) and the (2E)-2-[(2E,4E)-5-[3,3-dimethyl-5-sulfonato-1-(3-sulfonatopropyl)indol-1-ium-2-yl]penta-2,4-dienylidene]-3-[6-(2,5-dioxopyrrolidin-1-yl)oxy-6-oxo-hexyl]-3-methyl-1-(3-sulfonatopropyl)indoline-5-sulfonate (Potassium Ion (3)) (4.9 mg, 0.0044 mmol) in DMF (44 μL) is added Et3N (5.4 mg, 7.0 μL, 0.053 mmol) at RT. The solution is stirred at room temperature over night, concentrated, dissolved in water and purified on 12 g C-18 silica gel cartridge on Isolera system using acetonitrile in water (0 to 40%, 10 CV) and followed by lyophilization to afford Alexa 647 mannoside probe (3.3 mg, 34%) as deep blue solid.
The Kd values of the compounds are determined from dose response curves using twelve concentrations per compound in duplicate. Curves are fitted to data points using Fluorescence Polarization competitive displacement analysis, and Kds are interpolated from the resulting curves using GraphPad Prism software, version […] (GraphPad software Inc., San Diego, Calif., USA).

T1 sequence (P08191 22-177): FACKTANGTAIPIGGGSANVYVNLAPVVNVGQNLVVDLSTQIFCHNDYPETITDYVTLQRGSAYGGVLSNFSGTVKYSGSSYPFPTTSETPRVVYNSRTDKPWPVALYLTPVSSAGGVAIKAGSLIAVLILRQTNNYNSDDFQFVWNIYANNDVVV

`O=C(Nc1nc2ccc(Cl)cc2s1)c1cccc([C@H]2O[C@H](CO)[C@@H](O)[C@H](O)[C@@H]2O)c1` [Compound 30, N-(6-chlorobenzo[d]thiazol-2-yl)-3-((2R,3S,4R,5S,6R)-3,4,5-trihydroxy-6-(hydroxymethyl)tetrahydro-2H-pyran-2-yl)benzamide] was tested, and the IC50 was 53 nM and the Kd was 9.8 ± 1.8 nM.

`CCCc1ccc(NC(=O)c2cccc([C@H]3O[C@H](CO)[C@@H](O)[C@H](O)[C@@H]3O)c2)cc1` [Compound 31, N-(4-propylphenyl)-3-((2R,3S,4R,5S,6R)-3,4,5-trihydroxy-6-(hydroxymethyl)tetrahydro-2H-pyran-2-yl)benzamide] was tested, and the IC50 was 84 nM and the Kd was 22.8 ± 0.9 nM.

`O=C(Nc1ccc2ccccc2c1)c1cccc([C@H]2O[C@H](CO)[C@@H](O)[C@H](O)[C@@H]2O)c1` [Compound 32, N-(naphthalen-2-yl)-3-((2R,3S,4R,5S,6R)-3,4,5-trihydroxy-6-(hydroxymethyl)tetrahydro-2H-pyran-2-yl)benzamide] gave an IC50 of 45 nM and a Kd of 22.6 ± 18.7 nM.

`O=C(NCc1ccccc1)c1cccc([C@H]2O[C@H](CO)[C@@H](O)[C@H](O)[C@@H]2O)c1` [Compound 33, N-benzyl-3-((2R,3S,4R,5S,6R)-3,4,5-trihydroxy-6-(hydroxymethyl)tetrahydro-2H-pyran-2-yl)benzamide] showed an IC50 of 76 nM and a Kd of 28.9 ± 14.5 nM.

Compound `O=C(NCCc1ccccc1)c1cccc([C@H]2O[C@H](CO)[C@@H](O)[C@H](O)[C@@H]2O)c1` [Compound 34, N-phenethyl-3-((2R,3S,4R,5S,6R)-3,4,5-trihydroxy-6-(hydroxymethyl)tetrahydro-2H-pyran-2-yl)benzamide] has an IC50 of 124 nM and a Kd of 38 ± 7.1 nM.

For `O=C(NC1CC1)c1cccc([C@H]2O[C@H](CO)[C@@H](O)[C@H](O)[C@@H]2O)c1` [Compound 36, N-cyclopropyl-3-((2R,3S,4R,5S,6R)-3,4,5-trihydroxy-6-(hydroxymethyl)tetrahydro-2H-pyran-2-yl)benzamide], the IC50 was 168 nM and the Kd was 53.2 ± 6.5 nM.

`O=C(NCC1CC1)c1cccc([C@H]2O[C@H](CO)[C@@H](O)[C@H](O)[C@@H]2O)c1` [Compound 37, N-(cyclopropylmethyl)-3-((2R,3S,4R,5S,6R)-3,4,5-trihydroxy-6-(hydroxymethyl)tetrahydro-2H-pyran-2-yl)benzamide] gave a Kd of 40.1 ± 15.1 nM.

With `CNC(=O)c1cccc(-c2ccccc2[C@H]2O[C@H](CO)[C@@H](O)[C@H](O)[C@@H]2O)c1` [Compound 39, N-methyl-2′-((2R,3S,4R,5S,6R)-3,4,5-trihydroxy-6-(hydroxymethyl)tetrahydro-2H-pyran-2-yl)-[1,1′-biphenyl]-3-carboxamide] the IC50 was 1390 nM and the Kd was 396 ± 44.7 nM.

For `COc1ccc(Br)cc1[C@H]1O[C@H](CO)[C@@H](O)[C@H](O)[C@@H]1O` [Compound 41, (2R,3S,4R,5S,6R)-2-(5-bromo-2-methoxyphenyl)-6-(hydroxymethyl)tetrahydro-2H-pyran-3,4,5-triol], the IC50 was 223 nM and the Kd was 47.8 ± 6.8 nM.

`COC(=O)CCc1ccc(OC)c([C@H]2O[C@H](CO)[C@@H](O)[C@H](O)[C@@H]2O)c1` [Compound 42, Methyl 3-(4-methoxy-3-((2R,3S,4R,5S,6R)-3,4,5-trihydroxy-6-(hydroxymethyl)tetrahydro-2H-pyran-2-yl)phenyl)propanoate] gave an IC50 of 225 nM and a Kd of 58.4 ± 9.8 nM.

In the case of `OC[C@H]1O[C@H](c2cccc(-c3ccccc3)c2)[C@@H](O)[C@@H](O)[C@@H]1O` [Compound 43, (2R,3S,4R,5S,6R)-2-(hydroxymethyl)-6-(3-phenylphenyl)tetrahydropyran-3,4,5-triol], the IC50 is reported as 64 nM and the Kd is reported as 12.4 ± 1.3 nM.

For `OC[C@H]1O[C@H](c2ccccc2O)[C@@H](O)[C@@H](O)[C@@H]1O` [Compound 45, (2R,3S,4R,5S,6R)-2-(hydroxymethyl)-6-(2-hydroxyphenyl)tetrahydropyran-3,4,5-triol], the IC50 was 183 nM and the Kd was 76.9 ± 49.1 nM.

Work on `OC[C@H]1O[C@H](c2ccc(O)cc2)[C@@H](O)[C@@H](O)[C@@H]1O` [Compound 46, (2R,3S,4R,5S,6R)-2-(hydroxymethyl)-6-(4-hydroxyphenyl)tetrahydropyran-3,4,5-triol] yielded an IC50 of 148 nM and a Kd of 28.2 ± 13.3 nM.

Compound `OC[C@H]1O[C@H](c2cccc(F)c2)[C@@H](O)[C@@H](O)[C@@H]1O` [Compound 47, (2R,3S,4R,5S,6R)-2-(3-fluorophenyl)-6-(hydroxymethyl)tetrahydropyran-3,4,5-triol] has an IC50 of 163 nM and a Kd of 40.6 ± 10.4 nM.

In the case of `CC(C)C(=O)Nc1ccc(-c2cccc([C@H]3O[C@H](CO)[C@@H](O)[C@H](O)[C@@H]3O)c2)cc1` [Compound 49, 2-methyl-N-[4-[3-[(2R,3S,4R,5S,6R)-3,4,5-trihydroxy-6-(hydroxymethyl)tetrahydropyran-2-yl]phenyl]phenyl]propanamide], the IC50 is reported as 45 nM and the Kd is reported as 6.3 ± 1.4 nM.

In the case of `CNS(=O)(=O)c1cccc(-c2cccc([C@H]3O[C@H](CO)[C@@H](O)[C@H](O)[C@@H]3O)c2)c1` [Compound 50, N-methyl-3-[3-[(2R,3S,4R,5S,6R)-3,4,5-trihydroxy-6-(hydroxymethyl)tetrahydropyran-2-yl]phenyl]benzenesulfonamide], the IC50 is reported as 39 nM and the Kd is reported as 10.7 ± 5.2 nM.

`COC(=O)c1cc(Oc2cccc([C@H]3O[C@H](CO)[C@@H](O)[C@H](O)[C@@H]3O)c2)cc(C(=O)OC)c1` [Compound 51, Dimethyl 5-[3-[(2R,3S,4R,5S,6R)-3,4,5-trihydroxy-6-(hydroxymethyl)tetrahydropyran-2-yl]phenoxy]benzene-1,3-dicarboxylate] was tested, and the IC50 was 33 nM and the Kd was 5.2 ± 0.1 nM.

With `COC(=O)c1ccc(Oc2cccc([C@H]3O[C@H](CO)[C@@H](O)[C@H](O)[C@@H]3O)c2)cc1` [Compound 52, Methyl 4-[3-[(2R,3S,4R,5S,6R)-3,4,5-trihydroxy-6-(hydroxymethyl)tetrahydropyran-2-yl]phenoxy]benzoate] the IC50 was 23 nM and the Kd was < 5 nM.

Work on `COC(=O)Cc1ccc(Oc2ccc([C@H]3O[C@H](CO)[C@@H](O)[C@H](O)[C@@H]3O)cc2)cc1` [Compound 55, methyl 2-(4-(4-((2R,3S,4R,5S,6R)-3,4,5-trihydroxy-6-(hydroxymethyl)tetrahydro-2H-pyran-2-yl)phenoxy)phenyl)acetate] yielded an IC50 of 35 nM and a Kd of 6.3 ± 0.4 nM.

In the case of `COC(=O)c1cccc(Oc2ccc([C@H]3O[C@H](CO)[C@@H](O)[C@H](O)[C@@H]3O)cc2)c1` [Compound 56, Methyl 3-(4-((2R,3S,4R,5S,6R)-3,4,5-trihydroxy-6-(hydroxymethyl)tetrahydro-2H-pyran-2-yl)phenoxy)benzoate], the IC50 is reported as 14 nM and the Kd is reported as 5.4 ± 0.3 nM.

`OC[C@H]1O[C@H](c2cccc(Oc3ccc(F)cc3)c2)[C@@H](O)[C@@H](O)[C@@H]1O` [Compound 57, (2R,3S,4R,5S,6R)-2-[3-(4-fluorophenoxy)phenyl]-6-(hydroxymethyl)tetrahydropyran-3,4,5-triol] gave an IC50 of 76 nM and a Kd of 13.2 ± 0.2 nM.

`Cc1cc(C)cc(Oc2cccc([C@H]3O[C@H](CO)[C@@H](O)[C@H](O)[C@@H]3O)c2)c1` [Compound 58, (2R,3S,4R,5S,6R)-2-[3-(3,5-dimethylphenoxy)phenyl]-6-(hydroxymethyl)tetrahydropyran-3,4,5-triol] was tested, and the IC50 was 66 nM and the Kd was 11.1 ± 1.6 nM.

In the case of `OC[C@H]1O[C@H](c2cccc(Oc3ccccc3)c2)[C@@H](O)[C@@H](O)[C@@H]1O` [Compound 59, (2R,3S,4R,5S,6R)-2-(hydroxymethyl)-6-(3-phenoxyphenyl)tetrahydropyran-3,4,5-triol], the IC50 is reported as 26 nM and the Kd is reported as 6.3 ± 0.9 nM.
